Measurements from patent US20060216266A1, “Absorbable alpha-cyanoacrylate compositions” (priority 2005, published 2006).

Columns and labels:
[1] = Lap shear testing using pig skin; settings: 1/2" x 1" overlap, about 100 μl adhesive, cure 20~30 min, Instron pulling rate 5 mm/min, about 10 joints
Description: General Procedure for Lap Shear Testing Using Pig Skin
Fresh pig skin was harvested from the back of the pig within 5 hours post sacrifice. The hair was removed by trimming and shaving to expose a smooth skin surface. The fat attached to the inside skin surface was trimmed away. The skin was cut into 2″×1″ coupons and covered by saline moist paper towel before use.
The external surface of the skin was used as bonding surface to prepare the lap shear joint samples.
The coupons were patted dry prior to forming the lap shear joint. About 1 00 μl of adhesive was deposited to one coupon within ½″ from the nearer end and smoothed to cover a ½″×1″ area (FIG. 1). The other coupon was placed over the area of the coupon with applied adhesive to form an overlap of ½″×1″. A 1 lb weight was placed on top of the overlap area. The joint was allowed to cure for 20˜30 min and the strength of the joint was tested as described below.
The strength of the cured joint was tested using an Instron (Model 5544) with a pulling rate of 5 mm/min. The maximum load for the joint to fail was recorded.
Typically, about 10 joint samples were tested for each adhesive.

[2] = Glass transition temperature of polymer film; assay type: physicochemical; settings: adhesive polymer formed from the monomer
Description: A 1″×1″ Prolene mesh (Ethicon, Inc.) was briefly rinsed with 0.5% wt NaHCO3 aqueous solution and patted dry. The mesh was placed on a freshly prepared Agar plate in a petri dish and about 100 mg of monomer adhesive was applied and spread evenly across the mesh. The monomer adhesive was allowed to cure completely overnight with the petri dish covered and sealed with parafilm. The fully cured polymer film formed over the mesh was removed and rinsed with deionized water to remove any Agar attached and patted dry with paper towel. The thickness of the polymer film was about 0.6 mm.

[3] = Bonding of two moist fingertips by monomer; settings: very small amount of monomer placed between two moist fingertips

| SMILES | Load (maximum load for the lap shear joint to fail) [1] | Glass Transition Temperature (Tg, ° C.) [2] | Bonding of fingertips [3] |
| --- | --- | --- | --- |
| C=C(C#N)C(=O)OCCCCCC(=O)OCC [Et-ε-CPL-CA, 6-(2-Cyano-acryloyloxy)-hexanoic acid ethyl ester] | 3.68 ± 0.64 Ib | – | – |
| C=C(C#N)C(=O)OC(C)CC(=O)OCC (stereo not drawn) [Et-β-HBT-CA, 3-(2-Cyano-acryloyloxy)-butyric acid ethyl ester] | 4.09 ± 0.48 Ib | 32 °C | bonded the fingertips strongly within one minute |
| C=C(C#N)C(=O)OC(CCCC)C(=O)OCC (stereo not drawn) [Et-α-CPL-CA, 2-(2-Cyano-acryloyloxy)-hexanoic acid ethyl ester] | 1.26 ± 0.29 Ib | – | – |
| C=C(C#N)C(=O)OC(CCC)CC(=O)OCC (stereo not drawn) [Et-β-CPL-CA, 3-(2-Cyano-acryloyloxy)-hexanoic acid ethyl ester] | 4.49 ± 0.68 Ib | −11 °C | bonded the fingertips strongly within one minute |
| C=C(C#N)C(=O)OC(C)C(=O)OCCCC (centres unmarked) [Bu-Lac-CA, 2-Cyano-acrylic acid 1-butoxycarbonyl-ethyl ester, reference compound] | 4.96 ± 0.67 Ib | 52 °C | bonded the fingertips strongly within one minute |
